Columns and labels:
L-arabinose isomerase [1] = assay: L-arabinose isomerase bioconversion of D-galactose to D-tagatose, enzyme from Arthrobacter sp. ATCC 21920; type: biochemical; conditions: for D-TAGATOSE / O.D. (X - B): 1.67 M D-galactose, 60° C., 120 min.
Experimental: The cultures were screened based on cell propagation on medium #1 of Example 3 in the presence of L-arabinose as a carbon source.
Cells of Arthrobacter sp. ATCC 21920 were propagated on medium #1 of Example 3 in the presence of L-arabinose as a carbon source. Optimum pH, temperature, metal ion and metal ion concentration were evaluated on the cell extract containing L-arabinose isomerase as summarized below.
In the following tests, sample B was comprised of 0.8 ml. D-galactose and 0.2 ml. water and sample X was comprised of 0.8 ml. D-galactose and 0.2 ml. enzyme. The dilution factor for the optical density (O.D.) reading was 200×.

L-arabinose isomerase [2] = target: T1, L-arabinose isomerase (Bacillus amyloliquefaciens, UniProt A0A9P1JJ98); assay: L-arabinose isomerase bioconversion of D-galactose to D-tagatose, enzyme from Bacillus amyloliquefaciens IFO 3022; type: biochemical; conditions: for D-TAGATOSE / O.D. (X - B): 1.67 M D-galactose, 60° C., 120 min.
T1 construct: crude enzyme
T1 sequence (A0A9P1JJ98 1-499): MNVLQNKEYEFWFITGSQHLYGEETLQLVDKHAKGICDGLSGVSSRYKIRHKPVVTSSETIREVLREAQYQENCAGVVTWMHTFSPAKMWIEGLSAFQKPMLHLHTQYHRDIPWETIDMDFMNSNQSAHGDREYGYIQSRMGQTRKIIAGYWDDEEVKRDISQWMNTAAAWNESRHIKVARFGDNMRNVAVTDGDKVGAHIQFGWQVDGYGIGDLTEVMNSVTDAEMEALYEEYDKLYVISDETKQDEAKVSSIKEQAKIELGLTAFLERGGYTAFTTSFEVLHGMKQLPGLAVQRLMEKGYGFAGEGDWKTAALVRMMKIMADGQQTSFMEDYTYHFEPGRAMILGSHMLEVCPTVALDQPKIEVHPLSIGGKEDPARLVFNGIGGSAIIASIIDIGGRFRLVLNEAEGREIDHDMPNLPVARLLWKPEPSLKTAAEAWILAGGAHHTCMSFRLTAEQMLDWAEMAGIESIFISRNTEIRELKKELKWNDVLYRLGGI
Experimental: Bacillus amyloliquefaciens (previously known as Bacillus subtilis, IFO 3022, was evaluated as a source of L-arabinose isomerase. Cells of the culture were propagated on the same medium as used in Example 1 in the presence of L-arabinose as a carbon source. Optimum pH, temperature, metal ion and metal ion concentration were evaluated as summarized below.
In the following tests, sample B was comprised of 0.8 ml. D-galactose and 0.2 ml. water and sample X was comprised of 0.8 ml. D-galactose an 0.2 ml. enzyme. The dilution factor for the optical density (O.D.) reading was 200×. (The cystein carbazole method was used for the D-tagatose assay.)

L-arabinose isomerase [3] = target: T2, L-arabinose isomerase (Lactiplantibacillus pentosus, UniProt Q6UA74); assay: L-arabinose isomerase activity assay (cysteine-carbazole ketose determination), enzyme from Lactobacillus pentosus ATCC 8041; type: biochemical; conditions: for % Activity with activator (None = 100): metal ion activator, bioconversion of D-galactose; for Enzyme Activity: 10 minutes, 0.1 M L-arabinose or 0.2 M D-galactose as substrate; for total activity, Present Invention Data / activity (10 min.), Present Invention Data: substrate as labelled, propagation 24 hours, 37° C., pH 6.5, BYF 100 medium; for activity (10 min.), Present Invention Data: per g cell mass
T2 construct: whole cells, sonicated cell-free extract or immobilized, from L-arabinose-induced culture
T2 sequence (Q6UA74 1-474): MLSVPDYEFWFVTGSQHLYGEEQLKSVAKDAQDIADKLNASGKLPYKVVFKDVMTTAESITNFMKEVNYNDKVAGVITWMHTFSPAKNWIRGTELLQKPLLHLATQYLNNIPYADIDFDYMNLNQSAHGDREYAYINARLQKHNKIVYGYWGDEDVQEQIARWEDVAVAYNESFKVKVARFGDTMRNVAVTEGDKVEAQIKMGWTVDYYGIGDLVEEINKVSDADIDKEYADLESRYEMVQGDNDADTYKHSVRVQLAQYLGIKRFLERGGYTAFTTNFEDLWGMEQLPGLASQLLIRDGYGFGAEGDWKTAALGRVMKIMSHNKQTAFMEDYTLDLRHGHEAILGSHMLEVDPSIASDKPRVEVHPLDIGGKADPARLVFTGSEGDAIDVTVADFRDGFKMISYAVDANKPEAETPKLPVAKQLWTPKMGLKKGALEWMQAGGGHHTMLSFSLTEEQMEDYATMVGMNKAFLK
Experimental: The activity of L-arabinose isomerase can be assayed based on the appearance of keto-pentose (L-ribulose) or keto-hexose (D-tagatose) after incubation in the presence of the substrate aldo-pentose (L-arabinose) or aldo-hexose (D-galactose), respectively. The keto-pentose or keto-hexose can be measured colorimetrically utilizing cysteine-carbazole sulfuric acid as a reagent. The cysteine-carbazole method is described in, Zacharias Dische, "Color Reaction of Ketoses with Carbazole and Sulfuric Acid", Methods in Carbohydrate Chemistry (1962) page 481 [132]. Samples should be analyzed in duplicate, utilizing one sample as a blank to correct for substances which may interfere with the calorimetric ketose determination.
For purposes of this specification, one unit of L-arabinose isomerase activity is defined as that amount of enzyme which is required to produce one micromole of L-ribulose or D-tagatose from the respective substrates, L-arabinose or D-galactose, following ten minutes of incubation under assay conditions.
Following 24 hours of propagation, the cell mass was harvested and washed with a phosphate or maleate buffer at pH 6.5. The L-arabinose isomerase was extracted from the harvested cells by sonication.
To 1.0 ml of the bioconversion reaction medium (using a dilution factor if needed) the following is added:
0.2 ml of cystein hydrochloride (1.5% in water);
6.0 ml 75% sulfuric acid (450 ml conc. sulfuric acid+190 ml water); and
0.2 ml of 0.12% alcohol solution of carbazole (0.12 gram carbazole in 100 ml 95% ethanol).
The test tubes are incubated for 10 minutes at 57° C. and optical density (O.D.) is read at 540. The D-galactose substrate is used as a blank for reference.
A series of bioconversions were conducted with varied parameters to determine optimum conditions for Lactobacillus pentosus L-arabinose isomerase.

L-arabinose isomerase [4] = conditions: cited from earlier work; for affinity of the isomerase for the sugar: Yamanaka and Wood, 1966
[5] = test system: L-arabinose-L-ribulose-isomerase; conditions: Simpson, 1958; cited from earlier work
L-arabinose isomerase [6] = target: T3, L-arabinose isomerase (Mycolicibacterium smegmatis, UniProt Q9RHG2); conditions: Izumori et al., 1978; cited from earlier work
T3 construct: L-arabinose isomerases from Mycobacterium smegmatis induced by L-arabinose and D-galactose; host or cells: Mycobacterium smegmatis

[7] = at about 25° C.; cited from earlier work
[8] = 0.005 M metallic ion, O.D. 540, dilution 200×

T3 sequence (Q9RHG2 whole entry): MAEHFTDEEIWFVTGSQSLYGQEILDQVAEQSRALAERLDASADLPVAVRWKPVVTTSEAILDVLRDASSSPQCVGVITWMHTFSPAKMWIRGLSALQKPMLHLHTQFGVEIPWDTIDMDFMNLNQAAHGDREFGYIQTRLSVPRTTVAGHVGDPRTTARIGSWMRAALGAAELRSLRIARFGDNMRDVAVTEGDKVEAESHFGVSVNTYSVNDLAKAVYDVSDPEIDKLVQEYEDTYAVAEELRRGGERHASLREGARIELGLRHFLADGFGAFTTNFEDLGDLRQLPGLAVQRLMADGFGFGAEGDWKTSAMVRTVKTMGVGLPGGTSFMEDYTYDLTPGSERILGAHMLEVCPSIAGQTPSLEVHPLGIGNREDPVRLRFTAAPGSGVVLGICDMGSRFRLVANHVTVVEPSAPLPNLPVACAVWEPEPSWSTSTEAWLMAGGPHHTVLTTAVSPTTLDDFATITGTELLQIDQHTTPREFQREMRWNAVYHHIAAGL

[Mg] [Magnesium]
D-TAGATOSE (L-arabinose isomerase [1]; 0.005 M metallic ion): 0.036 M | O.D. (X - B) (L-arabinose isomerase [1]; [8]): 0.7890 | D-TAGATOSE (L-arabinose isomerase [2]; 0.005 M metallic ion): 0.005 M | O.D. (X - B) (L-arabinose isomerase [2]; [8]): 0.1048 | % Activity with activator (None = 100) (L-arabinose isomerase [3]): 141%

O=C[C@H](O)[C@@H](O)[C@@H](O)CO [L-arabinose, reference compound]
Enzyme Activity (L-arabinose isomerase [3]; 35° C.): 24.6 u/ml. | Enzyme Activity (L-arabinose isomerase [3]; 60° C.): 68.1 u/ml. | total activity, Present Invention Data (L-arabinose isomerase [3]): 4,220 u/L. | activity (10 min.), Present Invention Data (L-arabinose isomerase [3]): 425 u/g. | affinity of the isomerase for the sugar (L-arabinose isomerase [4]): high affinity | total activity, Published Data (L-arabinose isomerase [4]; substrate as labelled, propagation 24 hours, 37° C.): 525 u/L. | activity (10 min.), Published Data (L-arabinose isomerase [4]; substrate as labelled, propagation 24 hours, 37° C., per g cell mass): 350 u/g.

C[C@@H](O)[C@H](O)[C@H](O)[C@@H](O)C=O [D-fucose]
affinity of the isomerase for the sugar (L-arabinose isomerase [4]): low affinity

[Mn+2] [Manganese]
D-TAGATOSE (L-arabinose isomerase [1]; 0.005 M metallic ion): 0.044 M | O.D. (X - B) (L-arabinose isomerase [1]; [8]): 0.9574 | D-TAGATOSE (L-arabinose isomerase [1]; manganese ion 0.001 M): 0.041 M | O.D. (X - B) (L-arabinose isomerase [1]; manganese ion 0.001 M): 0.8919 | D-TAGATOSE (L-arabinose isomerase [1]; manganese ion 0.003 M): 0.035 M | O.D. (X - B) (L-arabinose isomerase [1]; manganese ion 0.003 M): 0.7600 | D-TAGATOSE (L-arabinose isomerase [1]; manganese ion 0.005 M): 0.040 M | O.D. (X - B) (L-arabinose isomerase [1]; manganese ion 0.005 M): 0.8848 | D-TAGATOSE (L-arabinose isomerase [1]; manganese ion 0.007 M): 0.042 M | O.D. (X - B) (L-arabinose isomerase [1]; manganese ion 0.007 M): 0.9057 | D-TAGATOSE (L-arabinose isomerase [1]; manganese ion 0.009 M): 0.051 M | O.D. (X - B) (L-arabinose isomerase [1]; manganese ion 0.009 M): 1.1175 | D-TAGATOSE (L-arabinose isomerase [1]; manganese ion 0.011 M): 0.043 M | O.D. (X - B) (L-arabinose isomerase [1]; manganese ion 0.011 M): 0.9333 | D-TAGATOSE (L-arabinose isomerase [1]; manganese ion 0.013 M): 0.049 M | O.D. (X - B) (L-arabinose isomerase [1]; manganese ion 0.013 M): 1.0753 | D-TAGATOSE (L-arabinose isomerase [2]; 0.005 M metallic ion): 0.035 M | O.D. (X - B) (L-arabinose isomerase [2]; [8]): 0.7610 | D-TAGATOSE (L-arabinose isomerase [2]; manganese ion 0.001 M): 0.036 M | O.D. (X - B) (L-arabinose isomerase [2]; manganese ion 0.001 M): 0.7723 | D-TAGATOSE (L-arabinose isomerase [2]; manganese ion 0.003 M): 0.030 M | O.D. (X - B) (L-arabinose isomerase [2]; manganese ion 0.003 M): 0.6441 | D-TAGATOSE (L-arabinose isomerase [2]; manganese ion 0.005 M): 0.031 M | O.D. (X - B) (L-arabinose isomerase [2]; manganese ion 0.005 M): 0.6815 | D-TAGATOSE (L-arabinose isomerase [2]; manganese ion 0.007 M): 0.031 M | O.D. (X - B) (L-arabinose isomerase [2]; manganese ion 0.007 M): 0.6678 | D-TAGATOSE (L-arabinose isomerase [2]; manganese ion 0.009 M): 0.030 M | O.D. (X - B) (L-arabinose isomerase [2]; manganese ion 0.009 M): 0.6591 | D-TAGATOSE (L-arabinose isomerase [2]; manganese ion 0.011 M): 0.032 M | O.D. (X - B) (L-arabinose isomerase [2]; manganese ion 0.011 M): 0.7007 | D-TAGATOSE (L-arabinose isomerase [2]; manganese ion 0.013 M): 0.032 M | O.D. (X - B) (L-arabinose isomerase [2]; manganese ion 0.013 M): 0.6851 | % Activity with activator (None = 100) (L-arabinose isomerase [3]): 177%

O=C[C@H](O)[C@@H](O)[C@@H](O)[C@H](O)CO [D-galactose]
L-arabinose isomerase activity (L-arabinose isomerase [1]; D-galactose as a substrate, 10 min. incubation): 21 U/g/10 min. | Km (D-galactose), as % (L-arabinose isomerase [1]; crude enzyme, Arthrobacter): 15% | substrate quality for L-arabinose-L-ribulose-isomerase [5]: slow | Km (D-galactose), as % (L-arabinose isomerase [2]; crude enzyme, B. amylo.): 12% | Enzyme Activity (L-arabinose isomerase [3]; 35° C.): 0.07 u/ml. | Enzyme Activity (L-arabinose isomerase [3]; 60° C.): 0.90 u/ml. | Km (D-galactose), as % (L-arabinose isomerase [3]; crude enzyme, L. pentosus): 20% | total activity, Present Invention Data (L-arabinose isomerase [3]): 395 u/L. | activity (10 min.), Present Invention Data (L-arabinose isomerase [3]): 45 u/g. | substrate of the isomerase (L-arabinose isomerase [6]): not a substrate of the isomerase | maximum solubility in water [7]: about 70 % by weight | activity of L-arabinose isomerase on the sugar (L-arabinose isomerase [4]; Nakamatu, Biochim. Biophys. Acta 178): slight | affinity of the isomerase for the sugar (L-arabinose isomerase [4]): low affinity

[Fe+3] [Ferric]
D-TAGATOSE (L-arabinose isomerase [1]; 0.005 M metallic ion): 0.037 M | O.D. (X - B) (L-arabinose isomerase [1]; [8]): 0.8003 | D-TAGATOSE (L-arabinose isomerase [2]; 0.005 M metallic ion): 0.018 M | O.D. (X - B) (L-arabinose isomerase [2]; [8]): 0.3817

[Co+2] [Cobalt]
D-TAGATOSE (L-arabinose isomerase [1]; 0.005 M metallic ion): 0.050 M | O.D. (X - B) (L-arabinose isomerase [1]; [8]): 1.0764 | D-TAGATOSE (L-arabinose isomerase [2]; 0.005 M metallic ion): 0.005 M | O.D. (X - B) (L-arabinose isomerase [2]; [8]): 0.0970 | % Activity with activator (None = 100) (L-arabinose isomerase [3]): 200%

[Zn+2] [Zinc]
D-TAGATOSE (L-arabinose isomerase [1]; 0.005 M metallic ion): 0.012 M | O.D. (X - B) (L-arabinose isomerase [1]; [8]): 0.2544 | D-TAGATOSE (L-arabinose isomerase [2]; 0.005 M metallic ion): 0.007 M | O.D. (X - B) (L-arabinose isomerase [2]; [8]): 0.1596 | % Activity with activator (None = 100) (L-arabinose isomerase [3]): 110%

[Ca] [Calcium]
D-TAGATOSE (L-arabinose isomerase [1]; 0.005 M metallic ion): 0.033 M | O.D. (X - B) (L-arabinose isomerase [1]; [8]): 0.7107 | D-TAGATOSE (L-arabinose isomerase [2]; 0.005 M metallic ion): 0.009 M | O.D. (X - B) (L-arabinose isomerase [2]; [8]): 0.1802 | % Activity with activator (None = 100) (L-arabinose isomerase [3]): 143%

[Fe+2] [Ferrous]
D-TAGATOSE (L-arabinose isomerase [1]; 0.005 M metallic ion): 0.037 M | O.D. (X - B) (L-arabinose isomerase [1]; [8]): 0.8030 | D-TAGATOSE (L-arabinose isomerase [2]; 0.005 M metallic ion): 0.020 M | O.D. (X - B) (L-arabinose isomerase [2]; [8]): 0.4438 | % Activity with activator (None = 100) (L-arabinose isomerase [3]): 200% | % Activity over activator range (L-arabinose isomerase [3]; range 1 MM-10 MM): 123-250%

Reference: US6057135A, “Process for manufacturing D-tagatose” (Kraft Foods, Inc., priority 1992, dated 2000)
